Columns and labels:
[1] = Hydrolysis of bis(p-nitrophenyl)phosphate, initial rate of 4-nitrophenolate formation at 400 nm; assay type: biochemical
Procedure: The copper (II) complex of N,N′,N″-trimethyl-cis,cis-1,3,5-triaminocyclohexane prepared in accordance with the method of Example 2 (1 mM) was combined with bis(4-nitrophenyl)phosphate (1 mM) and HEPES (50 mM), pH 7.24, at 50° C. and incubated, while monitoring for an increase in absorbance at 400 nm. An aliquot was withdrawn and analyzed by reverse phase HPLC, eluted with a linear gradient of 100% 50 mM acetic acid/50 mM triethylamine to 100% methanol over thirty minutes. The signals observed in the reaction mixture corresponded to the predicted hydrolytic products, p-nitrophenyl phosphate (10.5 min) and 4-nitrophenolate (16.8 min), as well as unreacted bis(p-nitrophenyl)phosphate (20.2 min). Products were confirmed by co-injection of standards.
(§1) Measurements were performed as previously described (Deal et al. (Inorg. Chem. 1996), supra). Briefly, the initial rate of formation of 4-nitrophenolate was monitored spectrophotometrically at 400 nm for 1 hr or for less than 10% conversion of bis(p-nitrophenyl)phosphate to products. Reactions were run in sets of four, triplicate reaction mixtures and one reference. Spontaneous hydrolysis of the phosphate diester was corrected in the reference, which was identical to the reaction mixture, except lacking metal complex. The concentration of 4-nitrophenolate was calculated from the absorbance using an extinction coefficient of 18700 L mol^−1 cm^−1. The initial rate was obtained from the slope of the plots of 4-nitrophenolate concentration vs. time.

[2] = Deal et al. (Inorg. Chem. 1996); cited from earlier work
[3] = tested on: Chinese hamster V79 cells; experiment: Cytotoxicity by macroscopic colony formation, surviving fraction of V79 cells; assay type: cell-based; settings: for treated cells that survive: concentration of 3 mM, FIG. 1
Procedure: Chinese hamster V79 cells were maintained in a 5% CO2/95% air humidified atmosphere at 37° C. in nutrient mixture F12 with 10% heat-inactivated fetal bovine serum and antibiotics. One day before each experiment, 5×10^5 V79 cells were plated into 100 mm petri dishes and incubated overnight The cells were exposed to the copper complex of N,N′,N″-triethyl-cis,cis-1,3,5-triaminocyclohexane or N,N,N″-triethyl-cis,cis-1,3,5-triaminocyclohexane or the corresponding ligand of N,N′,N″-triethyl-cis,cis-1,3,5-triaminocyclohexane or N,N′,N″-triethyl-cis,cis-1,3,5-triaminocyclohexane alone for 1 or 24 hours, after which they were rinsed, trypsinized, and plated for macroscopic colony formation. After incubating for 7 days, colonies were fixed with methanol/acetic acid and stained with crystal violet. Colonies larger than 50 cells were counted.

[4] = Hydrolysis of ethyl (p-nitrophenyl)phosphate; assay type: biochemical
Procedure: as §1
Bis(p-nitrophenyl)phosphate was hydrolyzed more rapidly than ethyl (p-nitrophenyl)phosphate, which was hydrolyzed more rapidly than p-nitrophenyl phosphate. Thus, the rate of metal-promoted hydrolysis is dependent on the electron-withdrawing ability of the leaving group. Leaving groups which are strongly electron-withdrawing are considered activated and hydrolyze more rapidly. […]

[5] = tested on: hypoxic MCF-7 human mammary carcinoma cells; experiment: Cytotoxicity to hypoxic MCF-7 cells, surviving fraction; assay type: cell-based; settings: 1500 μM, 1 hour, FIG. 3
Procedure: (§2) MCF-7 human mammary carcinoma cells were maintained in a 5% CO2/95% air humidified atmosphere at 37° C. in RPMI 1640 with 10% heat-inactivated fetal bovine serum and antibiotics. For hypoxia experiments, 3×10^5 MCF-7 cells were plated into glass flasks, and incubated overnight The flasks were sealed with a rubber stopper, and two hypodermic needles were inserted to allow for gassing. Flasks were gassed with a 95% nitrogen/5% carbon dioxide mixture for one hour. The copper complex was added to the cells after they were hypoxic through a glass sidearm connected to the flask by a ground glass connection. Cells were incubated for 1 hour for experiments to assess the toxicity of the copper complex, then plated and incubated as described previously in Example 4.

[6] = tested on: hypoxic MCF-7 human mammary carcinoma cells; experiment: Hypoxic irradiation with the copper complex, surviving fraction of MCF-7 cells; assay type: cell-based; settings: 15 minutes with complex, then irradiated, FIG. 4
Procedure: as §2, with “4. For hypoxic irradiation experiments, cells were incubated with the copper complex for 15 minutes, then irradiated, plated and incubated as described previously in Example 4. Cells were irradiated with an Eldorado 8 Cobalt-60 teletherapy machine (Theratronics International Ltd., Kanata, Ontario, Canada). The dose rate varied form 200 to 150 cGy/min during the course of this study. Decay corrections were done monthly, and full electron equilibrium was ensured for all irradiations.” for “4.”

For O=P(O)(O)OP(=O)(O)O [pyrophosphate, reference compound], the “inhibition of the hydrolysis reaction” value ([1]; 0.5 equivalents relative to the copper complex) was “completely inhibited”.
In the case of “copper (II) triazacyclononane [copper (II) triazacyclononane system]”, the “rate of phosphate diester hydrolysis” value [2] is given as 1.3e-06 s⁻¹.
In the case of “copper complex of N,N′,N″-triethyl-cis,cis-1,3,5-triaminocyclohexane”, the “treated cells that survive” value [3] is reported as 15%.
With “copper complex of N,N′,N″-trimethyl-cis,cis-1,3,5-triaminocyclohexane” the “rate of phosphate diester hydrolysis relative to the copper (II) triazacyclononane system” value [1] was “approximately 6.5 times faster”, the “pKa from plot of log initial rate versus pH (Dixon method)” value ([1]; consistent with deprotonation of a copper(II) coordinated water molecule) was 7.3 and the “maximal velocity (Vmax)” value ([1]; modified Lineweaver-Burke function) was 9.3e-08 s⁻¹. The Km ([1]; modified Lineweaver-Burke function, read-out: Michaelis Constant (Km)) was 4.4 mM, the “rate acceleration compared to the copper (II) triazacyclononane system” value [4] was 6.7 and the “concentration producing approximately the same effect, cells treated for 1 hr” value ([3]; 1 hr, FIG. 2) was 4000 µM. The “concentration producing approximately the same effect, cells treated for 24 hrs” value ([3]; 24 hrs, FIG. 2) was 1000 µM, the “treated cells that survive” value [3] was 3% and the “treated hypoxic cells destroyed” value [5] was “approximately 99%”. For the same compound, the “radiation alone needed for the same effect as radiation plus the copper complex” value [6] was “Approximately twice”.

From patent US6765104B1, “Transition metal complexes of n, n',n″trialkyl-cis-1,3,5-triaminocyclohexane and related compositions and methods of synthesis and use” (The United States of America as represented by the …, priority 1999, dated 2004)
